From patent US20230265151A1, “GIP/GLP1 CO-AGONIST COMPOUNDS” (priority 2020, published 2023)
Like-named read-outs stand apart in the source and are kept apart here.

What was measured:
[1] = molecular target: T1, human GIP receptor (hGIPR) (Homo sapiens, UniProt P48546); experiment: [125I]-GIP binding, SPA with membranes of CHO cells expressing hGIPR
T1 construct: expressed in transfected cells; crude membranes
T1 sequence (P48546 22-466): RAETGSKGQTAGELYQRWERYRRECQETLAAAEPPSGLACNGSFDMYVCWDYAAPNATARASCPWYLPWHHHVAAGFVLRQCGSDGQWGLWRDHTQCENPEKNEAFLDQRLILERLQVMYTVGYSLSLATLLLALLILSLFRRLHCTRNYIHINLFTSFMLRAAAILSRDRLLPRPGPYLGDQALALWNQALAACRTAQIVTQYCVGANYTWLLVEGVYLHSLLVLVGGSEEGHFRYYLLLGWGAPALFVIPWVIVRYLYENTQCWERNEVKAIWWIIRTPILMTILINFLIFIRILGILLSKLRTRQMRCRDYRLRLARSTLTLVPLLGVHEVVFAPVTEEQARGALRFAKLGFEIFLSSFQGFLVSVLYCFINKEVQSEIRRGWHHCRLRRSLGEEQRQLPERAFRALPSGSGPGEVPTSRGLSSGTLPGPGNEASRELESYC

hGIPR = molecular target: T2, hGIPR (Homo sapiens, UniProt P48546); experiment: Functional cAMP formation (HTRF) in HEK-293 clonal cells expressing hGIPR, 0.1% bovine casein, without or with 1.0% human serum albumin; format: cell-based; conditions: for Emax: percent of maximal response to GIP(1-42)NH2; for EC50: cAMP
T2 construct: expressed in transfected cells
T2 sequence (P48546 22-466): T1 sequence (P48546 22-466)
How it was run: (§1)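 Readings of the HTRF 665/620 nm ratio, which falls as cAMP rises, were converted to nM cAMP using a standard curve after 30 min peptide exposure at 37° C.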

hGCGR = molecular target: T3, hGCGR (Homo sapiens, UniProt P47871); experiment: Functional cAMP formation (HTRF) in HEK-293 clonal cells expressing hGCGR, 0.1% bovine casein, without or with 1.0% human serum albumin; format: cell-based; conditions: cAMP, 37° C.
T3 construct: expressed in transfected cells
T3 sequence (P47871 26-477): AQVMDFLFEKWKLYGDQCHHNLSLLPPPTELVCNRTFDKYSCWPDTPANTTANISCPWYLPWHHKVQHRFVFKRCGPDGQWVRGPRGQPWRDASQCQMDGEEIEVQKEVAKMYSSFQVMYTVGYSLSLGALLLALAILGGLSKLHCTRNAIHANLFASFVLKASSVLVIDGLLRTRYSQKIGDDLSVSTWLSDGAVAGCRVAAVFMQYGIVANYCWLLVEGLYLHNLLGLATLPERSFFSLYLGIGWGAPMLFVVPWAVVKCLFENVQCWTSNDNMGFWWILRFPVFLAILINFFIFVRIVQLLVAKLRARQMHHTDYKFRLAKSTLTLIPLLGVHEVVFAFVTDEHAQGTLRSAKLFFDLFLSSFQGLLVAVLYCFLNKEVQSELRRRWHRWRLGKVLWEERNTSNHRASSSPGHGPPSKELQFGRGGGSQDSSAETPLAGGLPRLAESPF
How it was run: as §1

hGLP-1R = hGLP-1R (Homo sapiens, UniProt P43220); experiment: Functional cAMP formation (HTRF) in HEK-293 clonal cells expressing hGLP-1R, 0.1% bovine casein, without or with 1.0% human serum albumin; format: cell-based; set-up: expressed in transfected cells; conditions: for Emax: percent of maximal response to GLP-1(7-36)NH2; for EC50: cAMP
hGLP-1R, sequence (P43220 24-463): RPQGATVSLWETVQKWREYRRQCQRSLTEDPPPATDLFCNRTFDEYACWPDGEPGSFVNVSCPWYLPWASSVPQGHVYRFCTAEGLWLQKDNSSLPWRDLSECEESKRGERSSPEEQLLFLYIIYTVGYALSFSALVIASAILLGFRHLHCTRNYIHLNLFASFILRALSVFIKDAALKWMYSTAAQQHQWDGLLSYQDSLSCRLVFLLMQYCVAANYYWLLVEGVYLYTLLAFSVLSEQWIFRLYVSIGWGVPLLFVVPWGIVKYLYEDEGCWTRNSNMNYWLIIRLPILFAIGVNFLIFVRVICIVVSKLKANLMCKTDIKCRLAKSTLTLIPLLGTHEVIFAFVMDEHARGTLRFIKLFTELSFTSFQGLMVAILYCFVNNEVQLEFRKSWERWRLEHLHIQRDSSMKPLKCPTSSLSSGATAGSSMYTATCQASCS
How it was run: as §1

[2] = HEK293, read-out: hGIPR Emax, % ± SEM, cAMP, 37° C., 0.1% bovine casein and 1.0% human serum albumin
[3] = hGIPR EC50, nM (SEM, n), 37° C., 0.1% bovine casein (no human serum albumin), geometric mean
[4] = hGCGR EC50, nM (SEM, n), 0.1% bovine casein (no human serum albumin), geometric mean
[5] = hGCGR EC50, nM (SEM, n), 0.1% bovine casein and 1.0% human serum albumin, geometric mean (SEM, n)
[6] = HEK293, read-out: hGLP-1R Emax, % ± SEM, cAMP, 37° C., 0.1% bovine casein, arithmetic mean
[7] = hGLP-1R EC50, nM (SEM, n), 37° C., 0.1% bovine casein (no human serum albumin), geometric mean
[8] = human GIPR, geometric mean (SEM, n), read-out: Binding Affinity Ki, nM (SEM, n) hGIPR
[9] = HEK293, cAMP, 37° C., 0.1% bovine casein and 1.0% human serum albumin, read-out: hGIPR Emax, % ± SEM
[10] = 37° C., 0.1% bovine casein (no human serum albumin), geometric mean, read-out: hGIPR EC50, nM (SEM, n)
[11] = 0.1% bovine casein (no human serum albumin), geometric mean, read-out: hGCGR EC50, nM (SEM, n)
[12] = 0.1% bovine casein and 1.0% human serum albumin, geometric mean (SEM, n), read-out: hGCGR EC50, nM (SEM, n)
[13] = 37° C., 0.1% bovine casein (no human serum albumin), geometric mean, read-out: hGLP-1R EC50, nM (SEM, n)

Compound	Ki [1] [nM]	Emax (hGIPR; [2]) [%]	EC50 (hGIPR; [3]) [nM]	EC50 (hGCGR; [4]) [nM]	EC50 (hGCGR; [5]) [nM]	Emax (hGLP-1R; [6]) [%]	EC50 (hGLP-1R; [7]) [nM]	Ki [1, 8] [nM]	Emax (hGIPR; [9]) [%]	Emax (hGIPR; HEK293, cAMP, 37° C., 0.1% bovine casein, arithmetic mean, read-out: hGIPR Emax, % ± SEM) [%]	EC50 (hGIPR; [10]) [nM]	EC50 (hGCGR; [11]) [nM]	EC50 (hGCGR; [12]) [nM]	Emax (hGLP-1R; HEK293, cAMP, 37° C., 0.1% bovine casein and 1.0% human serum albumin, read-out: hGLP-1R Emax, % ± SEM) [%]	EC50 (hGLP-1R; [13]) [nM]	Emax (hGIPR; HEK293, read-out: hGIPR Emax, % ± SEM, cAMP, 37° C., 0.1% bovine casein, arithmetic mean) [%]	EC50 (hGIPR; 37° C., 0.1% bovine casein and 1.0% human serum albumin, geometric mean (SEM, n), read-out: hGIPR EC50, nM (SEM, n)) [nM]	Emax (hGLP-1R; HEK293, cAMP, 37° C., 0.1% bovine casein, arithmetic mean, read-out: hGLP-1R Emax, % ± SEM) [%]	EC50 (hGLP-1R; 37° C., 0.1% bovine casein and 1.0% human serum albumin, geometric mean (SEM, n), read-out: hGLP-1R EC50, nM (SEM, n)) [nM]
CC[C@H](C)[C@H](NC(=O)[C@H](CC(C)C)NC(=O)[C@](C)(Cc1ccc(O)cc1)NC(=O)[C@H](CCCCNC(=O)COCCOCCNC(=O)COCCOCCNC(=O)COCCOCCNC(=O)CC[C@H](NC(=O)CCCCCCCCCOc1ccc(C(=O)O)cc1)C(=O)O)NC(=O)[C@@H](NC(=O)[C@H](Cc1ccccc1)NC(=O)[C@H](CCC(=O)O)NC(=O)C(C)(C)NC(=O)[C@H](CCC(N)=O)NC(=O)[C@H](C)NC(=O)[C@H](CCC(N)=O)NC(=O)[C@H](CCCN)NC(=O)[C@H](CC(=O)O)NC(=O)[C@H](CC(C)C)NC(=O)[C@](C)(CC(C)C)NC(=O)[C@@H](NC(=O)C(C)(C)NC(=O)[C@H](Cc1ccncc1)NC(=O)[C@H](CC(=O)O)NC(=O)[C@H](CO)NC(=O)[C@@H](NC(=O)[C@](C)(Cc1ccccc1F)NC(=O)[C@@H](NC(=O)CNC(=O)[C@H](CCC(=O)O)NC(=O)C(C)(C)NC(=O)[C@@H](N)Cc1ccc(O)cc1)[C@@H](C)O)[C@@H](C)O)[C@@H](C)CC)[C@@H](C)CC)C(=O)N[C@@H](CCCCNC(=O)COCCOCCNC(=O)COCCOCCNC(=O)COCCOCCNC(=O)CC[C@H](NC(=O)CCCCCCCCCOc1ccc(C(=O)O)cc1)C(=O)O)C(=O)NCC(=O)NCC(=O)N1CCC[C@H]1C(=O)N[C@@H](CO)C(=O)N[C@@H](CO)C(=O)NCC(=O)N[C@@H](C)C(=O)N1CCC[C@H]1C(=O)N1CCC[C@H]1C(=O)N1CCC[C@H]1C(=O)N[C@@H](CO)C(N)=O [Example 464]	0.0261	95.5	0.00955	> 10100	> 10100	114	0.161												
CC[C@H](C)[C@H](NC(=O)[C@H](CC(C)C)NC(=O)[C@](C)(Cc1ccc(O)cc1)NC(=O)[C@@H](CCC(=O)O)NC(=O)[C@@H](NC(=O)[C@H](Cc1ccccc1)NC(=O)[C@H](CCC(=O)O)NC(=O)C(C)(C)NC(=O)[C@H](CCC(N)=O)NC(=O)[C@H](C)NC(=O)[C@H](CCCCNC(=O)COCCOCCNC(=O)CCCCCCCNC(=O)CCCCCCCCCCCCC(=O)O)NC(=O)[C@H](CCCN)NC(=O)[C@H](CC(=O)O)NC(=O)[C@H](CC(C)C)NC(=O)[C@](C)(CC(C)C)NC(=O)[C@@H](NC(=O)C(C)(C)NC(=O)[C@H](Cc1ccncc1)NC(=O)[C@H](CC(=O)O)NC(=O)[C@H](CO)NC(=O)[C@@H](NC(=O)[C@](C)(Cc1ccccc1F)NC(=O)[C@@H](NC(=O)CNC(=O)[C@H](CCC(=O)O)NC(=O)C(C)(C)NC(=O)[C@@H](N)Cc1ccc(O)cc1)[C@@H](C)O)[C@@H](C)O)[C@@H](C)CC)[C@@H](C)CC)C(=O)N[C@@H](CCCCNC(=O)COCCOCCNC(=O)CCCCCCCNC(=O)CCCCCCCCCCCCC(=O)O)C(=O)NCC(=O)NCC(=O)N1CCC[C@H]1C(=O)N[C@@H](CO)C(=O)N[C@@H](CO)C(=O)NCC(=O)N[C@@H](C)C(=O)N1CCC[C@H]1C(=O)N1CCC[C@H]1C(=O)N1CCC[C@H]1C(=O)N[C@@H](CO)C(N)=O [Example 465]								0.0464	94.4	94.9	0.0174	> 9950	> 9950	93.3	0.413				
CC[C@H](C)[C@H](NC(=O)[C@H](CC(C)C)NC(=O)[C@](C)(Cc1ccc(O)cc1)NC(=O)[C@H](CCCCNC(=O)CCOCCOCCOCCOCCOCCOCCNC(=O)CC[C@H](NC(=O)CCCCCCCCCOc1ccc(C(=O)O)cc1)C(=O)O)NC(=O)[C@@H](NC(=O)[C@H](Cc1ccccc1)NC(=O)[C@H](CCCN)NC(=O)C(C)(C)NC(=O)[C@H](CCC(N)=O)NC(=O)[C@H](C)NC(=O)[C@H](CCC(N)=O)NC(=O)[C@H](CCCN)NC(=O)[C@H](CC(=O)O)NC(=O)[C@H](CC(C)C)NC(=O)[C@](C)(CC(C)C)NC(=O)[C@@H](NC(=O)C(C)(C)NC(=O)[C@H](Cc1ccncc1)NC(=O)[C@H](CC(=O)O)NC(=O)[C@H](CO)NC(=O)[C@@H](NC(=O)[C@](C)(Cc1ccccc1F)NC(=O)[C@@H](NC(=O)CNC(=O)[C@H](CCC(=O)O)NC(=O)C(C)(C)NC(=O)[C@@H](N)Cc1ccc(O)cc1)[C@@H](C)O)[C@@H](C)O)[C@@H](C)CC)[C@@H](C)CC)C(=O)N[C@@H](CCCCNC(=O)CCOCCOCCOCCOCCOCCOCCNC(=O)CC[C@H](NC(=O)CCCCCCCCCOc1ccc(C(=O)O)cc1)C(=O)O)C(=O)NCC(=O)NCC(=O)N1CCC[C@H]1C(=O)N[C@@H](CO)C(=O)N[C@@H](CO)C(=O)NCC(=O)N[C@@H](C)C(=O)N1CCC[C@H]1C(=O)N1CCC[C@H]1C(=O)N1CCC[C@H]1C(=O)N[C@@H](CO)C(N)=O [Example 468]	0.0291	85.9	0.00991	> 10100	> 10100	109	0.168									97.1			
CC[C@H](C)[C@H](NC(=O)[C@H](CC(C)C)NC(=O)[C@](C)(Cc1ccc(O)cc1)NC(=O)[C@H](CCCCNC(=O)COCCOCCNC(=O)COCCOCCNC(=O)COCCOCCNC(=O)CC[C@H](NC(=O)CCCCCCCCCCCCC(=O)O)C(=O)O)NC(=O)[C@@H](NC(=O)[C@H](Cc1ccccc1)NC(=O)[C@H](CCCN)NC(=O)C(C)(C)NC(=O)[C@H](CCC(N)=O)NC(=O)[C@H](C)NC(=O)[C@H](CCC(N)=O)NC(=O)[C@H](CCCN)NC(=O)[C@H](CC(=O)O)NC(=O)[C@H](CC(C)C)NC(=O)[C@](C)(CC(C)C)NC(=O)[C@@H](NC(=O)C(C)(C)NC(=O)[C@H](Cc1ccncc1)NC(=O)[C@H](CC(=O)O)NC(=O)[C@H](CO)NC(=O)[C@@H](NC(=O)[C@](C)(Cc1ccccc1F)NC(=O)[C@@H](NC(=O)CNC(=O)[C@H](CCC(=O)O)NC(=O)C(C)(C)NC(=O)[C@@H](N)Cc1ccc(O)cc1)[C@@H](C)O)[C@@H](C)O)[C@@H](C)CC)[C@@H](C)CC)C(=O)N[C@@H](CCCCNC(=O)COCCOCCNC(=O)COCCOCCNC(=O)COCCOCCNC(=O)CC[C@H](NC(=O)CCCCCCCCCCCCC(=O)O)C(=O)O)C(=O)NCC(=O)NCC(=O)N1CCC[C@H]1C(=O)N[C@@H](CO)C(=O)N[C@@H](CO)C(=O)NCC(=O)N[C@@H](C)C(=O)N1CCC[C@H]1C(=O)N1CCC[C@H]1C(=O)N1CCC[C@H]1C(=O)N[C@@H](CO)C(N)=O [Example 476]								0.0351	81.8		0.00886	> 9950	> 9950		0.117		0.154	114	1.5
